Data taken from PubChem BioAssay (NCI).
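Following 48 hours of exposure in 96-well plates, responses at five concentrations were used to interpolate endpoints linearly. TGI is the concentration that stops growth completely.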 Where a SMILES comes first, the peptide text is derived from it. The star is where a group is joined. Boc = CC(C)(C)OC(=O)*

Columns and labels:
Test in all cases: DTP human tumour cell line panel, 48 h
[1] = system: OVCAR-3 ovarian
[2] = system: OVCAR-8 ovarian
[3] = system: SF-268 CNS
[4] = system: PC-3 prostate
[5] = system: HOP-62 NSCLC
[6] = system: HCT-116 colon
[7] = system: SK-MEL-5 melanoma
[8] = system: K-562 leukemia
[9] = system: HS 578T breast
[10] = system: SF-539 CNS
[11] = system: CAKI-1 renal
[12] = system: MDA-MB-435
[13] = system: UACC-62 melanoma
[14] = system: HT29 colon
[15] = system: HCT-15 colon
[16] = system: SW-620 colon
[17] = system: SF-295 CNS
[18] = system: A549 NSCLC

Structure (SMILES)	TGI [1] [µM]	TGI [2] [µM]	TGI [3] [µM]	TGI [4] [µM]	TGI [5] [µM]	TGI [6] [µM]	TGI [7] [µM]	TGI [8] [µM]	TGI [9] [µM]	TGI [10] [µM]	TGI [11] [µM]	TGI [12] [µM]	TGI [13] [µM]	TGI [14] [µM]	TGI [15] [µM]	TGI [16] [µM]	TGI [17] [µM]	TGI [18] [µM]
O=C(NNC(=O)c1ccccc1Cl)c1ccccc1O	> 100	> 100	> 100	> 100	> 100	> 100	> 100	> 100	> 100	> 100	> 100	> 100	> 100	> 100	> 100	> 100	> 100	> 100
COC(=O)CNC(=O)Nc1cc(N2C(=O)ON3C2C(C)(C)N(O)C3(C)C)ccc1C (stereo not given)	> 100	> 100	> 100	> 100	> 100	> 100	> 100	> 100	> 100	> 100	> 100	> 100	> 100	> 100	> 100	> 100	> 100	> 100
CCOC(=O)c1c(N2CCOCC2)[nH]c(=O)c(C(c2ccc(Cl)c([N+](=O)[O-])c2)c2c(O)c(C(=O)OCC)c(N3CCOCC3)[nH]c2=O)c1O	35.5	37	> 100	50.1	> 100	63.6	74.5	> 100	> 100	59.7	> 100	> 100	> 100	42.1	> 100	58.7	> 100	> 100
CC(C)(C)c1cc(C(C)(C)C)c2sc(=S)oc2c1O	17.5	20.9	19.8	13.8	31.1	21	21.8	32.9	20.4	11.1	18.6	26.8	23.4	30.1	17.8	> 46.7	23.5	> 41.3
N#CC(c1ccccc1)N(CCc1ccccc1)C(=O)Oc1ccccc1 (stereo not given)	> 100	> 100	> 100	> 100	> 100	> 100	> 100	> 100	> 100	> 100	> 100	> 100	> 100	> 100	> 100	> 100	> 100	> 100
NC(N)=NS(=O)(=O)c1ccc(NNc2c3ccccc3nc3c(C(=O)Nc4ccc(S(N)(=O)=O)cc4)cccc23)cc1	> 100	> 100	> 100	> 100	> 100	> 100	> 100	69.9	88	> 100	> 100	> 100	> 100	56.1	> 100	> 100	> 100	> 100
CCOC(=O)C(CC(C)C)NC(=O)C(Cc1ccccc1)NC(=O)CNC(=O)OC(C)(C)C (stereo not drawn) (Boc-Gly-Phe-Leu-OEt; configuration not given here)	34.4	46	43.3	35.7	64	32.6	36.8	49	96	28.5	23.2	34.4	35.9	32.4	35.8	39.9	78.5	44.1
CCOC(=O)C(Cc1cn(S(=O)(=O)c2ccc(C)cc2)cn1)P(=O)(OCC)OCC (stereo not given)	> 100	> 100	> 100	> 100	> 100	> 100	> 100	> 100	> 100	> 100	> 100	> 100	> 100	> 100	> 100	> 100	> 100	> 100
COc1ccc(Nc2nc3ccccc3nc2C(=O)O)cc1	> 100	> 100	> 100	> 100	> 100	> 100	> 100	> 100	85.9	> 100	> 100	> 100	> 100	> 100	> 100	> 100	> 100	> 100
CC1OC(OC2C(O[C@@H]3C[C@@H]4CC[C@@H]5[C@H](CC[C@]6(C)[C@@H]7[C@H](C[C@@H]56)O[C@]5(CC[C@@H](C)CO5)[C@H]7C)[C@@]4(C)C[C@H]3O)OC(CO)C(OC3OC(CO)C(O)C(O)C3O)C2O)C(O)C(O)C1O (stereo not given in full)	3.04	2.9	3.51	2.85	3.22	13.1	2.89	58.1	4.38	3.16	3.35	3.16	3.62	2.88	4.66	3.04	2.92	3.02
